These results are taken from BindingDB's records for doi:10.7270/Q2T72FVT (University of Pittsburgh, 2007).

SMILES strings stand for the structures.

Sequence of Serine/threonine-protein kinase PLK1 (P53350 whole entry, the tested form may be a part): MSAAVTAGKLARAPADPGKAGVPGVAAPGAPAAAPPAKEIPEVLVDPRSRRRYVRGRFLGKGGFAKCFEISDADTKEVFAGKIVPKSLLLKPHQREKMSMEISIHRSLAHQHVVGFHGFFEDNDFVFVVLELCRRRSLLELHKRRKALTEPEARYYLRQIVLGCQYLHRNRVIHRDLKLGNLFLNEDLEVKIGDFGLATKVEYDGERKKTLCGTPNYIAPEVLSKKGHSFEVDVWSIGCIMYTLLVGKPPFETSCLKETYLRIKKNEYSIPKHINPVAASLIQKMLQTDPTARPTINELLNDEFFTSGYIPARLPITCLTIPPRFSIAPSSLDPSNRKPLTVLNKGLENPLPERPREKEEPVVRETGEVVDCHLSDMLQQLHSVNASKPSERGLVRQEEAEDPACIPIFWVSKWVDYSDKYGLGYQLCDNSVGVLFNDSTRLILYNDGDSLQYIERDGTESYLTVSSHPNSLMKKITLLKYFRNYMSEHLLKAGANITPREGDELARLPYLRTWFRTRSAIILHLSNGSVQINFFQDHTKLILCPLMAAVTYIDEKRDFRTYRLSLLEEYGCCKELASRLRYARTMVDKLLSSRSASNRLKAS

The assay has as its target Serine/threonine-protein kinase PLK1 (Homo sapiens, UniProt P53350). The assay can be described thus: Plk1 polo box domain binding inhibitors, dose response, biochemical, fluorescence polarization (AID 877).
As to `O=C1C(=O)c2ccccc2-c2ccccc21`, the IC50 (usually the concentration that inhibits the measured activity by half) amounted to 10.1 µM. For the compound `Cc1ccc(-n2c(O)c(C=NCCN3CCOCC3)c(=O)[nH]c2=O)cc1`, the IC50 is > 50 µM.

In the case of `CCOC(=O)c1ccc(NC(=O)c2c(O)[nH]c(=O)[nH]c2=O)cc1`, the IC50 was 2.28 µM. That is a single-digit micromolar value. With `O=c1[nH]cc(COCc2ccccc2)c(=O)[nH]1`, the IC50 is > 50 µM. `Cc1ccc(NC2=CC(=NS(=O)(=O)c3cccs3)c3ccccc3C2=O)c(C)c1`: the IC50 was > 50 µM. Take `CN1C(=O)N(C)C(=O)C2(Sc3ccccc3C2=O)C1=O` [1',3'-dimethylspiro[benzothiophene-2,5'-hexahydropyrimidine]-2',3,4',6'-diquinone]: the IC50 is > 50 µM. As to `Cc1ccc2c(c1)CC1(CN2C)C(=O)NC(=O)N(c2ccccc2C)C1=O` (configuration not stated) [1',6'-dimethyl-1-(2-methylphenyl)spiro[1,3-diazinane-5,3'-2,4-dihydroquinoline]-2,4,6-trione], the IC50 was > 50 µM. The compound `Cc1nc2c(=O)n(C)c(=O)nc-2n(C)n1` [1,3,6-Trimethyl-1H-pyrimido[5,4-e][1,2,4]triazine-5,7-dione] gave an IC50 of 14.6 µM. This lies in the double-digit micromolar range. The figure for `Cc1ccc(CNC(=O)c2cc3c(=O)n(C)c4ccccc4c3n2C)cc1` [1,5-dimethyl-N-[(4-methylphenyl)methyl]-4-oxidanylidene-pyrrolo[3,2-c]quinoline-2-carboxamide] is > 50 µM; for `Cn1c(=O)c(NCCO)c2c3c(cccc31)C(=O)c1ccccc1-2` [1-(2-Hydroxy-ethylamino)-3-methyl-3H-naphtho[1,2,3-de]quinoline-2,7-dione] it is 1.81 µM; for `COc1cc(S(=O)(=O)N2CCCCCC2)ccc1-n1cnnn1` [1-(3-Methoxy-4-tetrazol-1-yl-benzenesulfonyl)-azepane] it is > 50 µM. With `COc1ccc(CC2NCCC3(O)CCCCC23)cc1` (configuration not stated) [1-(4-Methoxy-benzyl)-octahydro-isoquinolin-4a-ol] the figure was > 50 µM. With `O=C1CN(c2ccc(Br)cc2)C(=O)N1CC(=O)N1CCCc2ccccc21` [1-(4-bromophenyl)-3-[2-(3,4-dihydro-1(2H)-quinolinyl)-2-oxoethyl]-2,4-imidazolidinedione] the figure was > 50 µM; with `CCCSc1nc(N2CCOCC2)c2c(c1C#N)CCCC2` [1-(4-morpholinyl)-3-(propylthio)-5,6,7,8-tetrahydroisoquinoline-4-carbonitrile], > 50 µM; with `CS(=O)(=O)N1CCN(C/C=C/c2ccccc2)CC1` [1-(methylsulfonyl)-4-(3-phenyl-2-propen-1-yl)piperazine], > 50 µM.

Consider `Fc1ccc(Cn2nnnc2CN2CCN(C3CCCC3)CC2)cc1` [1-Cyclopentyl-4-[1-(4-fluoro-benzyl)-1H-tetrazol-5-ylmethyl]-piperazine], for which the IC50 is > 50 µM. Take `NC(=O)C1(N2CCCCC2)CCN(C(=O)NC2CCCCC2)CC1` [1-N-cyclohexyl-4-piperidin-1-ylpiperidine-1,4-dicarboxamide]: the half-maximal inhibitory concentration (IC50) is > 50 µM. In the case of `CC(=O)N1CCc2cc(Br)cc(S(=O)(=O)NCc3ccccn3)c21` [1-acetyl-5-bromo-N-(2-pyridinylmethyl)-2,3-dihydroindole-7-sulfonamide], the concentration for half-maximal inhibition (IC50) was > 50 µM. `CCOC(=O)c1cc2n(c1N)-c1ccccc1C2=O` [1-amino-4-keto-pyrrol[1,2-a]indole-2-carboxylic acid ethyl ester] showed an IC50 of 19.9 µM. The figure for `O=C(c1ccc(-n2cnnn2)cc1)N1CCCCC1` [1-piperidinyl-[4-(1-tetrazolyl)phenyl]methanone] is > 50 µM; for `Cn1c(-c2cc3ccc(OC(=O)C(C)(C)C)cc3oc2=O)nc2ccccc21` [2,2-Dimethyl-propionic acid 3-(1-methyl-1H-benzoimidazol-2-yl)-2-oxo-2H-chromen-7-yl ester] it is > 50 µM.

As to `O=C(Nc1cccn(Cc2c(Cl)cccc2Cl)c1=O)c1c(Cl)cccc1Cl` [2,6-dichloro-N-[1-(2,6-dichlorobenzyl)-2-keto-3-pyridyl]benzamide], the IC50 was > 50 µM. With `Nc1cc(-c2ccc(Br)cc2)nn1S(=O)(=O)c1cccc2nsnc12` [2-(2,1,3-benzothiadiazol-4-ylsulfonyl)-5-(4-bromophenyl)-3-pyrazolamine] the figure was > 50 µM; with `O=C(O)C1CCCCC1C(=O)Nc1ccc2c(c1)OCCO2` (configuration not stated) [2-(2,3-dihydro-1,4-benzodioxin-6-ylcarbamoyl)cyclohexane-1-carboxylic acid], > 50 µM. With `COc1ccccc1C1SCCN1S(=O)(=O)c1cccc(C(F)(F)F)c1` (configuration not stated) [2-(2-Methoxy-phenyl)-3-(3-trifluoromethyl-benzenesulfonyl)-thiazolidine] the figure was > 50 µM. With `NC(=O)Cn1c(S(=O)(=O)Cc2ccccc2)nc2ccccc21` [2-(2-benzylsulfonylbenzimidazol-1-yl)acetamide] the figure was > 50 µM; with `COc1ccc(Nc2oc(-c3ccccc3Cl)nc2C#N)cc1` [2-(2-chlorophenyl)-5-(4-methoxyanilino)-1,3-oxazole-4-carbonitrile], > 50 µM; with `Cc1nn(C(C)C(=O)N2CCCCC2)c(=O)c2c1sc1ccccc12` (configuration not stated) [2-(2-keto-1-methyl-2-piperidino-ethyl)-4-methyl-benzothiopheno[2,3-d]pyridazin-1-one], > 50 µM.

As to `O=C(Cc1ccc(Cl)cc1)NCCN1CCCC1` [2-(4-Chloro-phenyl)-N-(2-pyrrolidin-1-yl-ethyl)-acetamide], the IC50 is > 50 µM.

`CNC(=O)CC(C(=O)O)c1ccc(OCC(C)C)cc1` (configuration not stated) [2-(4-Isobutoxy-phenyl)-N-methyl-succinamic acid]: the IC50 is > 50 µM.

With `Cc1ccc(OCC(=O)Nc2ccc(N3CCOCC3)cc2)cc1` [2-(4-methylphenoxy)-N-(4-morpholin-4-ylphenyl)acetamide], the IC50 is > 50 µM. The figure for `C=CCSc1nccc(-c2cc(Cl)sc2Cl)n1` [2-(allylsulfanyl)-4-(2,5-dichloro-3-thienyl)pyrimidine] is > 50 µM; for `CCNC(=O)NC(=O)C(C)OC(=O)c1cccnc1SC` (configuration not stated) [2-(methylthio)-3-pyridinecarboxylic acid [1-(ethylcarbamoylamino)-1-oxopropan-2-yl] ester] it is > 50 µM; for `Nc1ccc2c(c1)C(=O)C(=O)c1ccccc1-2` [2-Amino-phenanthrene-9,10-dione] it is 5.9 µM. With `O=C(CC1C(=O)NCCN1C(=S)Nc1ccccc1)Nc1ccc2c(c1)OCCO2` (configuration not stated) [2-[1-(anilinocarbonothioyl)-3-oxo-2-piperazinyl]-N-(2,3-dihydro-1,4-benzodioxin-6-yl)acetamide] the figure was > 50 µM.

On to `O=C(CN1C(=O)c2ccccc2C1=O)N1CCN(c2nnc(-c3ccccc3)c3ccccc23)CC1` [2-[2-keto-2-[4-(4-phenylphthalazin-1-yl)piperazino]ethyl]isoindoline-1,3-quinone], for which the IC50 was > 50 µM.

Regarding `CCC(Sc1nc2nnc(C)c-2c(N)n1-c1cccc(Cl)c1)C(=O)NCCOC` (configuration not stated) [2-[4-amino-5-(3-chlorophenyl)-3-methylpyrazolo[3,4-d]pyrimidin-6-yl]sulfanyl-N-(2-methoxyethyl)butanamide], the IC50 was > 50 µM. The figure for `O=NCc1cc(Br)ccc1OCC(=O)O` [2-[4-bromanyl-2-(hydroxyiminomethyl)phenoxy]ethanoic acid] is > 50 µM; for `CCN1C(=O)/C(=C/c2nc3ccccc3c(=O)n2-c2ccccc2)c2ccccc21` [2-[(1-ethyl-2-oxo-1,2-dihydro-3H-indol-3-ylidene)methyl]-3-phenyl-4(3H)-quinazolinone] it is > 50 µM.

As to `COc1ccc(S(=O)(=O)N(C)CC(=O)Nc2ccccc2C(F)(F)F)cc1` [2-[(4-methoxyphenyl)sulfonyl-methyl-amino]-N-[2-(trifluoromethyl)phenyl]acetamide], the IC50 is > 50 µM.

As to `CCn1ncc(CN2CCN(C(=O)Nc3ccccc3C(=O)OC)CC2)c1C` [2-[[4-[(1-ethyl-5-methyl-pyrazol-4-yl)methyl]piperazine-1-carbonyl]amino]benzoic acid methyl ester], the IC50 is > 50 µM. `CCn1c(SCC(N)=O)nnc1-c1ccc(S(=O)(=O)N2CCN(C)CC2)cc1` [2-[[4-ethyl-5-[4-(4-methylpiperazin-1-yl)sulfonylphenyl]-1,2,4-triazol-3-yl]sulfanyl]acetamide]: the IC50 is > 50 µM. With `COC(=O)CNC(=O)C12CC3(C)CC(C)(CC(C)(C3)C1)C2` [2-[[oxo-(3,5,7-trimethyl-1-adamantyl)methyl]amino]acetic acid methyl ester], the IC50 was > 50 µM.

In turn, `Cc1oc2c(c1C(=O)c1ccccc1)C(=O)C(=O)c1ccccc1-2` [2-methyl-3-(phenylcarbonyl)benzo[g][1]benzofuran-4,5-dione] gave a concentration for half-maximal inhibition (IC50) of 43.6 µM. This counts as double-digit micromolar.

Take `COc1cc(OC)cc(C(=O)NCCCN2CCOCC2)c1` [3,5-Dimethoxy-N-(3-morpholin-4-yl-propyl)-benzamide]: the IC50 was > 50 µM.

As for `Cc1cccc(-n2c(CCn3nc(C)c([N+](=O)[O-])c3C)n[nH]c2=S)c1` [3-(2-{4-nitro-3,5-dimethyl-1H-pyrazol-1-yl}ethyl)-4-(3-methylphenyl)-5-sulfanyl-4H-1,2,4-triazole], the IC50 was > 50 µM. The figure for `Cc1cc(C)n(-c2nnc3n2N=C(c2ccccc2)CS3)n1` [3-(3,5-dimethyl-1-pyrazolyl)-6-phenyl-7H-[1,2,4]triazolo[3,4-b][1,3,4]thiadiazine] is > 50 µM; for `Cn1nc(-c2ccc(Cl)cc2)nc2c(=O)n(C)c(=O)nc1-2` [3-(4-Chloro-phenyl)-1,6-dimethyl-1H-pyrimido[5,4-e][1,2,4]triazine-5,7-dione] it is 2.46 µM.

Turning to `COc1ccc(Cn2c(=O)sc3ccccc32)cc1` [3-(4-Methoxy-benzyl)-3H-benzothiazol-2-one], the half-maximal inhibitory concentration (IC50) was > 50 µM. For the compound `COC(=O)CCc1c(C)[nH]c(=S)[nH]c1=O` [3-(6-methyl-4-oxo-2-sulfanylidene-1H-pyrimidin-5-yl)propanoic acid methyl ester], the IC50 was > 50 µM.

For the compound `CC(C)Sc1nc(N2CCOCC2)c2c(c1C#N)CC(C)(C)N(C)C2` [3-(isopropylthio)-6,6,7-trimethyl-1-morpholino-5,8-dihydro-2,7-naphthyridine-4-carbonitrile], the IC50 was > 50 µM.

As to `O=C1CCC(C(=O)O)(c2ccccc2)C1` (configuration not stated) [3-Oxo-1-phenyl-cyclopentanecarboxylic acid], the IC50 was > 50 µM.
